The values that follow come from ChEMBL document CHEMBL5727708, “Spiro-condensed pyrrolidine derivatives as deubiquitylating enzymes (DUB) inhibitors” (2020).

SMILES strings stand for the structures.

This assay concerns the target T1, OTU domain-containing protein 7B (Homo sapiens, UniProt Q6GQQ9).
T1 sequence (Q6GQQ9 whole entry): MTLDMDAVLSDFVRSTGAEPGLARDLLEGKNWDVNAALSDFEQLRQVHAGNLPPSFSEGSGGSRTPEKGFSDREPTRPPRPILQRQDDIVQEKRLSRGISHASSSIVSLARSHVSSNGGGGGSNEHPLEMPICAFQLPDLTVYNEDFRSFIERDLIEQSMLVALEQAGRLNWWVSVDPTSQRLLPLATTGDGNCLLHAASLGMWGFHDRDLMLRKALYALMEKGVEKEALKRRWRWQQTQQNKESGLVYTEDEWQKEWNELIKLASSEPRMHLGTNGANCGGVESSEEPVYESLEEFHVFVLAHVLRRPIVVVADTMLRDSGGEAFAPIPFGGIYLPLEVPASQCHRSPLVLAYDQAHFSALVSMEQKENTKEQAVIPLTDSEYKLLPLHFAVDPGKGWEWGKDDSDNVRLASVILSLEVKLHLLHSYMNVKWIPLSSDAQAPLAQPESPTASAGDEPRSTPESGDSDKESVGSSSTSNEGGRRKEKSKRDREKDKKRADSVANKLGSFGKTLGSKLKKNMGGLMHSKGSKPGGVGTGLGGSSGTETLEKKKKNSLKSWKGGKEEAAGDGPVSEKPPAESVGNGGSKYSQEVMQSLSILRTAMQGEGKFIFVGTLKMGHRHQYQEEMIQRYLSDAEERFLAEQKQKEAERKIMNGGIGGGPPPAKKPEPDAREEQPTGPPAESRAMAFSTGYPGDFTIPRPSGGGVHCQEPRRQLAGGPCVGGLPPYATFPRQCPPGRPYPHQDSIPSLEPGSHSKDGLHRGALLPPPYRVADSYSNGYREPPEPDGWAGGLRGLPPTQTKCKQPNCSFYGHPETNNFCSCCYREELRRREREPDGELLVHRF
Kind of assay: Biochemical Assay: Dilution plates were prepared at 21 times the final concentration (2100 μM for a final concentration of 100 μM) in 50% DMSO in a 96-well polypropylene V-bottom plate (Greiner #651201). A typical 8-point dilution series to be 100, 30, 10, 3, 1, 0.3, 0.1, 0.03 μM final. Reactions were performed in duplicate in black 384 well plates (small volume, Greiner 784076) in a final reaction volume of 21 μl. Either 1 μl of 50% DMSO or diluted compound was added to the plate. Cezanne 1 was diluted in reaction buffer (40 mM Tris, pH 7.5, 0.005% Tween 20, 0.5 mg/ml BSA, 5 mM-beta-mercaptoethanol) to the equivalent of 0.005 μl/well and 10 μl of diluted Cezanne 1 was added to the compound. Enzyme and compound were incubated for 30 min at room temp. Reactions were initiated by the addition of 50 nM of TAMRA labelled peptide linked to ubiquitin via an iso-peptide bond as fluorescence polarisation substrate. Reactions were read immediately after addition of substrate and following a 2 hr incubation at room temperature. Readings were performed on a Pherastar Plus. λ Excitation 540 nm; λ Emission 590 nm.

Usually IC50 stands for the midpoint of a concentration-inhibition curve.

Regarding `Cc1ccc2[nH]ncc2c1-c1cnc2c(c1)NC(=O)C1(CCN(C#N)C1)N2` (stereo unspecified), the IC50 was under 0.1 µM.
